Patent US11826466B2, “Bendamustine solution formulations” (Navinta, LLC, priority 2016, dated 2023)
Where a name gives a salt, the structure may show the parent alone.

Legend:
[1] = Solubility of Bendamustine Hydrochloride in DMA
[2] = Solubility of Bendamustine Hydrochloride in DMA-Water Mixture; assay type: physicochemical; conditions: organic solvent or mixture, thermodynamic from solid, 5° C.
Method: To 10 ml of DMA-water mixture, excess (˜2-3 g) of Bendamustine Hydrochloride hydrate was added and the mixture was stirred for 24 hr while keeping in a constant temperature bath. After 24 hr, the mixture was centrifuged to remove the undissolved solid and the supernatant was filtered through a 0.2 micron filter. The clear filtrate was assayed.

[3] = room temperature; reported in U.S. Pat. No. 8,344,006; cited from earlier work

Cn1c(CCCC(=O)O)nc2cc(N(CCCl)CCCl)ccc21 [Bendamustine Hydrochloride hydrate]
concentration of solutions in DMA made by adding water to DMA ([1]; DMA with added water): up to 200 mg/mL
solubility ([1]; DMA, 2 °C, organic solvent or mixture): ~65 mg/mL
solubility at 24 h ([2]; DMA:Water 60:40): 67 mg/mL
solubility at 24 h ([2]; DMA:Water 80:20): 169 mg/mL
solubility at 24 h ([2]; DMA:Water 90:10): 201 mg/mL
solubility at 24 h ([2]; DMA:Water 95:5): 114 mg/mL
solubility at 24 h ([2]; DMA:Water 97:3): 116 mg/mL
solubility at 24 h ([2]; DMA): 72 mg/mL

Cn1c(CCCC(=O)O)nc2cc(N(CCCl)CCCl)ccc21 [Bendamustine Hydrochloride]
solubility in DMA [3]: about 56 mg/mL
